According to US4950658A, “Method of medical treatment of Alzheimer's disease” (priority 1988, dated 1990):

Experiments:
[1] = Side effects of cholinesterase inhibitors in rats; set-up: animals with facial clonus / animals with sedation: dose or concentration left out as unconfirmed
Alzheimer patients = settings: i.v. administration; cited from earlier work
[2] = system: 3H-choline accumulation and K+ evoked acetylcholine release; assay: 3H-choline accumulation and K+ evoked acetylcholine release in vitro; settings: concentration giving 100% inhibition of cholinesterase in vitro; after each of two doses
plasma cholinesterase = assay: Plasma cholinesterase inhibition by naled, DDVP and metrifonate; assay type: biochemical
Excerpt: Unlike metrifonate, which acts as a slow release formulation, naled degrades rapidly in vivo to the metabolite DDVP. […] The slightly lower values in inhibition observed for naled than that of DDVP can be attributed to its higher molecular weight. […] All the cholinesterase inhibition activity of naled is a result of the formation of DDVP.

acetylcholine [3] = settings: acute administration, all brain regions; cited from earlier work
cholinesterase [4] = settings: when normal acetylcholine levels are regained (within 24 hours) after acute administration; cited from earlier work
acetylcholine [5] = settings: cortex, striatum, hippocampus and midbrain; cited from earlier work
brain cholinesterase [6] = settings: cited from earlier work
[7] = with loss of enzymatic inhibitory activity; cited from earlier work
brain cholinesterase [8] = assay: Cholinesterase activity in rat after intramuscular inhibitor; assay type: in vivo; settings: for activity of cholinesterase: 80 mg/Kg intramuscular
[9] = system: plasma acetycholinesterase; settings: in vivo; cited from earlier work
[10] = system: Alzheimer's disease patients; assay: Open metrifonate study in Alzheimer's disease patients, ADAS; assay type: in vivo
Experimental: We have administered metrifonate to 15 Alzheimer's disease patients. Patients were diagnosed using Diagnostic Statistical Manual IIIR criteria. […] Patients with moderately severe Alzheimer's disease were accepted to explore for effects of severity on drug response.
(§1) Patients were tested using the Alzheimer's Disease Assessment Scale (ADAS) (Rosen et al 1984), Mini Mental State Examination (Folstein et al 1975), a Clincial Global Assessment Scale (Guy 1973) and a rating scale for side effects. A laboratory battery to assess hematopoietic, hepatic, urinary and cardiac status, physical examination, vital signs and measurement of blood cholinesterase activities were completed. Patients were then given in a single oral dose under open conditions metrifonate 2.5 mg/Kg and 5 mg/Kg on successive weeks and reassessed 1, 4 and 7 days after the 2.5 mg/Kg dose and 4 and 7 days after the 5 mg/Kg dose. Patients were next administered metrifonate one month later after a second baseline assessment (blood cholinesterase have returned to initial values by 1 month) and were given on four successive weeks 7.5 mg/Kg, 7.5 mg/Kg, 15 mg/Kg and 15 mg/Kg and assessed 7 days after each dosing prior to administration of the next dose. At each assessment all the cognitive and medical studies at baseline were repeated.
To identify responders we used the criterion of an improvement of 4 points on the ADAS. Among 5 patients who have received all four dosage levels we have identified 5 as responders, among 10 patients who have received both the 2.5 and 5 mg/Kg doses we have identified 5 responders for a total of 10 responders identified. […] The longest term patients (n=5) were on metrifonate for a total of four months.
In the completed patients the preferred dose, defined as maximum improvement without interfering side effects, was identified. Best doses ranged from 2.5 to 7.5 mg/Kg. Lower doses of about 0.5 mg/Kg were also operable.

acetylcholine [11] = assay: Acetylcholine levels in rat brain after one or two consecutive administrations; assay type: in vivo
Excerpt: The second administration of the drugs was timed so as to allow acetylcholine levels to return to approximately (+12%) control levels and the concentration of the drug was the highest that would allow 100% survival.

acetylcholinesterase = settings: cited from earlier work
acetylcholine [12] = assay: Acetylcholine levels in rat brain regions after intracerebroventricular metrifonate; assay type: in vivo; settings: 2.5 mg intracerebroventricularly
Experimental: (§2) Levels of acetylcholine increased by 45% at 45 min. then returned to normal by 120 min. When metrifonate (2.5 mg) was given intracerebroventricularly the activity of cholinesterase decreased in the injected side at 30 min. to 20% in hippocampus, 22% in the medulla, 50% in the cerebellum, 58% in the striatum and 72% in the cortex.

[13] = system: brain acetylcholinesterase; settings: 125 mg/kg intraperitoneal, within 15 minutes; cited from earlier work
[14] = Side effects in Alzheimer's disease patients on metrifonate; assay type: in vivo
Experimental: as §1
(§3) In sum we have successfully administered metrifonate to 15 patients (4-16 weeks of once weekly drug) without the appearance of side effects except for nausea and vomiting in four patients that has not reoccurred following administration of the highest dose as a divided dose over two days. […]

[15] = system: cholinesterase and acetylcholinesterase in blood; assay: Blood cholinesterase activities in Alzheimer's disease patients on metrifonate; assay type: in vivo; settings: 15 patients, 4-16 weeks of once weekly drug
Experimental: as §1, §3

[16] = in vivo; cited from earlier work
cholinesterase [17] = assay: Cholinesterase activity in rat brain regions after intracerebroventricular metrifonate; assay type: in vivo; settings: 2.5 mg intracerebroventricularly, injected side, 30 min
Experimental: as §2

acetylcholine [18] = settings: 125 mg/kg intraperitoneal, simultaneous with inhibition; cited from earlier work
[19] = physostigmine i.m., tetrahydroaminoacridine 15 mg/Kg
[20] = tetrahydroaminoacridine 15 mg/Kg

For `Nc1c2c(nc3ccccc13)CCCC2` [tetrahydroaminoacridine], which animals with fasciculations [1, 19] is on record?
Its animals with fasciculations is 25%.

What about the animals with tremor [1, 19] of the same compound?
The animals with tremor was 25%.

What about the “animals with facial and forelimb clonus” value [1, 20] of the same compound?
The value was 10%.

What about the “animals with generalized seizures” value [1, 20] of the same compound?
Its value is 4%.

And the “animals with increased salivation” value [1, 20]?
Its value is 60%.

What about the animals with lacrimation [1, 20] of the same compound?
Its animals with lacrimation is 40%.

What about the “animals with pronounced splay” value [1, 20] of the same compound?
Its value is 35%.

What about the “interval between generalized seizures” value [1, 20] of the same compound?
The value was 5 to 10 min.

With `CNC(=O)Oc1ccc2c(c1)[C@]1(C)CCN(C)[C@@H]1N2C` [physostigmine] as the compound, how does the “studies that have shown improvement in memory” value (Alzheimer patients) read?
The value was 6 out of 9.

What about the 3H acetylcholine release [2] of the same compound?
Its 3H acetylcholine release is “significantly more”.

And the “animals with splay of hind limbs” value ([1]; physostigmine 300 mg/Kg i.m.)?
Its value is 25%.

What about the “animals with facial clonus” value ([1]; physostigmine i.m.) of the same compound?
The value was 15%.

What about the animals with sedation ([1]; physostigmine i.m.) of the same compound?
Its animals with sedation is 10%.

What about the animals with fasciculations [1, 19] of the same compound?
Its animals with fasciculations is 60%.

And the animals with tremor [1, 19]?
The animals with tremor was 30%.

For `COP(=O)(OC)OC(Br)C(Cl)(Cl)Br` (stereo not drawn) [naled, 1,2-dibromo-2,2-dichlorvoethyl dimethyl phosphate], which “plasma cholinesterase inhibition compared with DDVP” value (plasma cholinesterase) is on record?
The value was “parallel to that by DDVP”.

And the “inherent cholinesterase inhibition activity” value (plasma cholinesterase; conclusion from comparison with DDVP)?
Its value is “without inherent cholinesterase inhibition activity of its own”.

Which “time to regain normal acetylcholine levels” value (acetylcholine [3]) does the source give for `COP(=O)(OC)OC=C(Cl)Cl` [DDVP, 2,2 dichlorovinyl dimethyl phosphate] here?
Its value is ≤ 24 h.

And the cholinesterase still inhibited (cholinesterase [4])?
The cholinesterase still inhibited was 35%.

What about the “time to peak accumulation of acetylcholine” value (acetylcholine [5]) of the same compound?
Its value is ≤ 5 min.

What about the “time to become active as inhibitor of brain cholinesterase” value (brain cholinesterase [6]; in vivo) of the same compound?
Its value is “one”.

What about the “inhibition of brain cholinesterase” value (brain cholinesterase [6]; maximal (up to)) of the same compound?
The value was “up to 96%”.

What about the “inactivation by oxidative metabolism” value [7] of the same compound?
The value was “rapidly inactivated”.

Which results are given for `COP(=O)(OC)C(O)C(Cl)(Cl)Cl` (stereo not drawn) [metrifonate]?
activity of cholinesterase (brain cholinesterase [8]; 30 min): 26%; activity of cholinesterase (brain cholinesterase [8]; 180 min): 50%; activity of cholinesterase (brain cholinesterase [8]; 360 min): 74%; peak cholinesterase inhibition (brain cholinesterase [8]; at the doses used): 85%; time of peak cholinesterase inhibition (brain cholinesterase [8]; at the doses used): 30 min; half life of cholinesterase inhibition [9]: 120 to 140 h; effect of the highest dose on cognitive performance ([10]; 15 mg/KG): deterioration in cognitive performance; clinical effect of once weekly dosing ([10]; 0.5 to 15 mg/Kg body weight/week, significant number of Alzheimer's disease patients): improvement in memory, cognition and other behaviors; total of responders identified ([10]; 15 patients): 10; effect of lower doses ([10]; about 0.5 mg/Kg): operable; change on the ADAS in responders ([10]; all responders): ≥ 9; responders (improvement of 4 points on the ADAS) ([10]; among 5 patients who received all four dosage levels): 5; responders (improvement of 4 points on the ADAS) ([10]; among 10 patients who received both the 2.5 and 5 mg/Kg doses): 5; time of return of acetylcholine to normal (acetylcholine [11]; 80 mg/Kg intramuscular): ≤ 120 min; increase in levels of acetylcholine (acetylcholine [11]; 80 mg/Kg intramuscular, 45 min): 45%; time at which acetylcholine returned practically to control levels (acetylcholine [11]; first administration): 90 min; time at which the peak value of acetylcholine was reached (acetylcholine [11]; first administration): 45 min; increase in acetylcholine levels after the first administration (acetylcholine [11]; rat brain, first of two consecutive administrations): 45%; duration of the acetylcholine increase after the second administration (acetylcholine [11]; second consecutive administration): 120 min; increase in acetylcholine after the second administration (acetylcholine [11]; second consecutive administration, highest dose allowing 100% survival): 33%; activity of the precursor itself against acetylcholinesterase (acetylcholinesterase): not active; seizures ([1]; metrifonate 80 mg/Kg 1M): did not occur; survival ([1]; metrifonate 80 mg/Kg 1M): all animals survived; time at which symptoms developed after the injection ([1]; metrifonate 80 mg/Kg 1M): 20 to 35 min; side effects compared with the other two drugs ([1]; metrifonate 80 mg/Kg 1M vs physostigmine and tetrahydroaminoacridine): less frequent and less severe; maximal level of acetylcholine, hippocampus and cortex (acetylcholine [12]; 45 min): 160 % of baseline; peak level of acetylcholine, striatum (acetylcholine [12]; 60 min): 155 % of baseline; inhibition of brain acetylcholinesterase [13]: 70%; patients with nausea and vomiting ([14]; 15 patients, 4-16 weeks of once weekly drug): four; adverse, side or toxic effects ([14]; up to 15 mg/Kg body weight/week, except occasional nausea and vomiting): have not occurred; inhibition of cholinesterase and acetylcholinesterase in blood [15]: up to 80%; absorption in humans [16]: rapidly absorbed; tolerance in humans [16]: relatively few side effects; increase necessary to obtain the same amount of plasma cholinesterase inhibition (plasma cholinesterase; relative to naled/DDVP): 10 fold; activity of cholinesterase, cerebellum (cholinesterase [17]): 50%; activity of cholinesterase, cortex (cholinesterase [17]): 72%; activity of cholinesterase, hippocampus (cholinesterase [17]): 20%; activity of cholinesterase, medulla (cholinesterase [17]): 22%; activity of cholinesterase, striatum (cholinesterase [17]): 58%; change in acetylcholine (acetylcholine [18]): increase
